Source: patent EP2236511A2, “LIGANDS OF ALPHA-ADRENOCEPTORS AND OF DOPAMINE, HISTAMINE, IMIDAZOLINE AND SEROTONIN RECEPTORS AND THE USE THEREOF” (priority 2007, dated 2009)
Counter-ions that a name gives are not always drawn. Like-named read-outs stand apart in the source and are kept apart here.

Columns and labels:
human D2S receptor = molecular target: T1, human D2S receptor (Homo sapiens, UniProt P14416); assay: Radioligand binding to dopamine receptor D2S ([3H] Spiperone, CHO membranes)
T1 construct: expressed in transfected cells; host or cells: CHO
Text: 7-C. […] For this purpose sDNA of human D2S receptor is expressed in CHO cells, as described in [Hayes G, Biden TJ, Selbie LA and Shine J, Structural subtypes of the dopamine D2 receptor are functionally distinct. […] Mol Endocrinol. […] Mol Endocrinol. […] Spiperone is used as positive control.

recombinant human 5-HT1A = molecular target: T2, recombinant human 5-HT1A (Homo sapiens, UniProt P08908); assay: Radioligand binding to serotonin receptor 5-HT1A ([3H] 8-OH-DPAT, CHO membranes); conditions: for inhibition at 10 µM: read-out: 5-HT1A % inhibition
T2 construct: expressed in transfected cells; host or cells: CHO
T2 sequence (P08908 1-422): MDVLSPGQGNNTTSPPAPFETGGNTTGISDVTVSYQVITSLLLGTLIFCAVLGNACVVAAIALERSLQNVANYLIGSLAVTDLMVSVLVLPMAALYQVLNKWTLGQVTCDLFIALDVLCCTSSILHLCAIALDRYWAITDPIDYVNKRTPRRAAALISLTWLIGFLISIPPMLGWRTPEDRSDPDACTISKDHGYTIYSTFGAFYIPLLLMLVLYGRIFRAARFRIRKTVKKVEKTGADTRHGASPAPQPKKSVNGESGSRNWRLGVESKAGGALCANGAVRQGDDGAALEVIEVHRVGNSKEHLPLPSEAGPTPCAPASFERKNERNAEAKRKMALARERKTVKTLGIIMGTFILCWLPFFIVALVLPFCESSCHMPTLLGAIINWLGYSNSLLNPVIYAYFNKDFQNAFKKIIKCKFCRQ
Text: J Pharmacol Exp Ther. 306(1): 301-309, 2003]. […] Metergoline is used as positive control.

mice = assay: Mice Training in Morris Water Maze (Scopolamine); format: in vivo; conditions: unitary introduction of active ingredient; figures 10-13
Procedure: Example 17. Mice Training in Morris Water Maze. A round pool which was filled with water at 20-22°C was used. A round ceramic platform of 14cm height was placed in the pool. Animals's behavior was registered with automated computer videosystem in combination with software package of movement analysis Any-maze (Stoelting Co., US). Before testing mice suitable for training were selected. That was done by placing the platform 1cm above the water level and putting an animal on the platform for 20 seconds. Then the mouse was sunk into the water on the opposite side of the pool, allowed to find the platform and climbed it […] 60 seconds, where it was left for additional 20 seconds. After that the mouse was repeatedly immersed into water on the opposite side of the pool and allowed to look for platform. If it failed in finding the platform within 60 seconds the experimentator helped it to find the platform and climb it. If the mice could not find the platform itself in two consecutive attempts it was excluded from experiment. During the next two days the platform was placed 0.5 centimeter lower the water level. Every day the mice were given four attempts for finding the platform within 60 seconds. The time interval between the attempts was 20 seconds, during which the mice stayed on the platform. Every day before the first attempt mouse was placed on the platform for 20 seconds. The time needed for finding and climbing the platform was registered. The animals were sunk in water in 3 different places on the side of the pool opposite to platform. On each day of two-day testing 35-40 minutes before the beginning of training the mice were injected intraintestinally with physiological solution, Scopolamine or Scopolamine in combination with investigated compound. At least 8 animals were used in each group. On the third day the platform was removed and each animal was placed one time in the pool for a period of 60 seconds. The time each mouse spent in the area where the platform had been located during the previous days was registered. This time interval was regarded as a measure of effectiveness of training fulfilled during the previous two days. The testing was carried out during the day time in isolated laboratory using "white noise" at level of about 70 decibel above the human hearing threshold.

male mice of BALB/c line [1] = assay: Passive Avoidance of mice in the Shuttle Chamber, memory disturbed by Scopolamine; format: in vivo; conditions: Scopolamine 0.3 mg/kg, injected 30 minutes before training; figures 1-3
Procedure: Example 14. […] A shuttle chamber (Ugo Basile, Italy) consisted of two sections was used. […] The sections were connected through a hole which could be overlapped by a vertical door. The floor was made of transverse metal bars on which DC current impulses could be fed. Experiments were carried out in aged male mice of BALB/c line weighing 20-24 grams.
Each group consisted of at least 8 animals. Animal was placed in light section, and latent period of the first entry into dark chamber was registered. Then the vertical door was closed and the animal was punished by 0.6 mA DC current for 3 seconds. After that it was taken back to its homecage. In 22-24 hours the same animal was placed again in light section of the shuttle chamber and latent period of its first entry into dark section, the total time of its stay in light section, and the number of entries into dark section, were registered. Each monitoring lasted for 5 minutes.
Testing was carried out during the day time in isolated laboratory using white noise at level of about 70 decibel above human hearing threshold.
Scopolamine causes the disturbance of training (memory loss) that results in […].

male mice of BALB/c line [2] = assay: Passive Avoidance of mice in the Shuttle Chamber, memory disturbed by MK-801; format: in vivo; conditions: MK-801 0.1 mg/kg, injected 30 minutes before training; fig. 4-6
Procedure: Example 15. […] The testing was carried out as in example 14. […] Concurrently, physiological solution of MK-801 in combination with active ingredient 1.9 (1) 1/2NDSA was injected intraintestinally to independent group of mice before training.

male mice of BALB/c line [3] = assay: Mice Behavior in the Elevated Plus Maze; format: in vivo; conditions: fig. 7-9; compared with Buspirone and Lorazepam
Text: Example 16. […] The length of each arm of the maze was 30cm, width is 5cm, and height of the walls was 15cm. Two opposite arms were closed from both sides and end faces by transparent walls, the other two arms were lit and opened. A mouse was placed in the center of the maze and for the next five minutes the number of entries into opened and closed arms and the time spent in each type of arms was registered. […] The animals usually avoided opened arms (the preference index is between 0.2 and 0.3). Compounds with tranquilizing action increased this index up to 0.5-0.6 or even more and reduced the number of defecations without changing the overall motion activity of the mice (the total number of their entries to the arms).

[4] = read-out: Dopamine receptors, % inhibition D2S

T1 sequence (P14416 1-414 isoform P14416-2): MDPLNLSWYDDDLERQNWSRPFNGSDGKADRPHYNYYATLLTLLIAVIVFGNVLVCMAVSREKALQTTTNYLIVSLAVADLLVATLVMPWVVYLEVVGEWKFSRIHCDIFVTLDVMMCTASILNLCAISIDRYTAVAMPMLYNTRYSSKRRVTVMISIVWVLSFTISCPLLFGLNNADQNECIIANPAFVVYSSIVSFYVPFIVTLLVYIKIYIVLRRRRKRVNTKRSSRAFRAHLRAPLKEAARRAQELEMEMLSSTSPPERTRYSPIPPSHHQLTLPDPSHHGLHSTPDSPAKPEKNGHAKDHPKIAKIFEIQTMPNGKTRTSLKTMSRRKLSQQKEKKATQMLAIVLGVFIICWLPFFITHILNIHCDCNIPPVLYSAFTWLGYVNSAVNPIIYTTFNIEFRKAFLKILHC

Question: `Cc1ccc2c(c1)[C@@H]1CN(C)CCC[C@@H]1N2CCc1cccnc1` (relative stereo) [1.6.1(1)·3HCl] was tested. Which inhibition at 10 µM (human D2S receptor; [4]) did it give?
Answer: 42%

Question: For `Cc1ccc2c(c1)[C@@H]1CN(C)CCC[C@@H]1N2CCc1ccc(C)nc1` (relative stereo) [1.6.1(2)·3HCl], which inhibition at 10 µM (human D2S receptor; [4]) is on record?
Answer: 31%

Question: And the inhibition at 10 µM (recombinant human 5-HT1A)?
Answer: -9%

Question: With `Cc1ccc2c(c1)c1c(n2CCc2ccccc2)CCN(C)C1` [1.1.2(1-2)·HCl, 2,8-dimethyl-5-phenethyl-1,2,3,4-tetrahydro-1H-pyrido[4,3-b]indole hydrochloride] as the molecule, how does the inhibition at 10 µM (recombinant human 5-HT1A) read?
Answer: 84%

Question: With `Cc1ccc(CCn2c3c(c4cc(C)ccc42)CN(C)CC3)cc1` [1.1.2(1-3), 2,8-dimethyl-5-[2-(4-methylphenyl)-ethyl]-1,2,3,4-tetrahydro-1H-pyrido[4,3-b]indole] as the molecule, how does the 5-HT1A % inhibition (recombinant human 5-HT1A; 10 µM ligand) read?
Answer: 68%

Question: For `Cc1ccc2c(c1)c1c(n2CCc2ccccn2)CCN(C)C1` [1.1.2(2-3)·2HCl], which inhibition at 3 µM (human D2S receptor; [4]) is on record?
Answer: 77%

Question: What about the “memory disorders caused by Scopolamine (time spent in area of the platform)” value (mice) of the same molecule?
Answer: decreasing memory disorders

Question: Which “Dopamine receptors, % inhibition D2S” value (human D2S receptor; 10 µM ligand) does the source give for `Cc1ccc2c(c1)c1c(n2CCc2ccc(C)nc2)CCN(C)C1` [1.1.2(4-2)·2HCl] here?
Answer: 80%

Question: What about the Ki (human D2S receptor; Receptor D2S) of the same molecule?
Answer: 629 nM

Question: What about the nH (human D2S receptor; Receptor D2S) of the same molecule?
Answer: 0.724

Question: And the inhibition at 10 µM (recombinant human 5-HT1A; 10 µM ligand)?
Answer: 9%

Question: With `Cc1ccc2c(c1)c1c(n2CCc2ccccn2)CCCN(C)C1` [1.2.2(2-2)] as the molecule, how does the 5-HT1A % inhibition (recombinant human 5-HT1A; 10 µM ligand) read?
Answer: -5%

Question: What does the source list for `CN1CCc2c(c3ccccc3n2Cc2ccccc2)C1` [1.9(1)·1/2NDSA, bis-(5-benzyl-2-methyl-2,3,4,5-tetrahydro-1H-pyrido[4,3-b]indole) naphthalene-1,5-disulfonate]?
Answer: nH (human D2S receptor; Receptor D2S): 0.879; inhibition at 10 µM (human D2S receptor; [4]): 51%; enhancement of memory disturbed by Scopolamine (male mice of BALB/c line [1]): nootropic action; memory enhancement disturbed by MK-801 (male mice of BALB/c line [2]): act as nootropic; Anxiolytic (tranquilizing) action (male mice of BALB/c line [3]): exhibits anxiolytic (tranquilizing) action
